Measurements taken from article PMC8100298, “Histone deacetylase inhibitor resminostat in combination with sorafenib counteracts platelet-mediated pro-tumoral effects in hepatocellular carcinoma” (Scientific Reports, 2021).
Where two headings read alike, the source gives them in different places.

How the values were obtained:
Assay type in all cases: cell-based
NCIH82 = assay: Efficacy screening assay; conditions: Homo sapiens, NCI-H82, NCIH82, lung, 72 h
Experimental: In a two-step reaction, the substrate with the acetylated lysine side chain was incubated for with a sample containing HDAC activity to p roduce the deacetylated products: 1 h at 30°C for HDAC1, 2, 3 and 6; 30 min at RT for HDAC4, 5, 7 and 9; 2 h at 30°C for HDAC8, 10 and […]
(excitation) and 460 nm (emission). […]
The experiment was performed by Oncolead GmbH & Co. KG (Karlsfeld , Germany), based on a standardized screening procedure . Cell lines were purchased directly from the ATCC, NCI and DSMZ cell line c ollections. Cells used for the study had undergone less than 20 passages. To ensure the absence of potential contamination and wrong assignment, all cell lines were tested using a whole genome assay (Agilent, USA). All cell lines were grown as recommended by the suppliers and with addition of 100 U/mL penicillin G and 100 µg/mL; streptomycin. Cell growth and treatments were performed in Nunclon D 96 -well plates (NUNC, Germany). The optimal seeding density for each cell line was determined to ensure exponential growth for the duration of the experiment. All cells growing without anti-cancer agents were sub-conﬂuent by the end of the treatment, as determined by visual inspection.
After an initial 24 h pre-growth period, the compounds were added. The vehicle concentration […]
was 0.1% DMSO. After incubation at 37°C for 72 h, the culture medium was aspirated, and the cells were precipitated by the addition of 10% trichloroacetic acid (Sigma-Aldrich, Missouri, US). After overnight incubation at 4°C, the plates were washed three times with deionized water. The precipitates were then stained with SRB (0.4% wt/v sulforhodamine B solution in 1% acetic acid, Sigma-Aldrich, Missouri, US). Afterwards, the plates were washed six times with 1% acetic acid to remove unbound stain. After drying the plates at room temperature, the bound SRB was solubilized with 10 mM Tris base and the optical density was measured at 520 nm using a Victor2 plate reader (Perkin Elmer, Germany). Blank OD values were subtracted from mean OD values for each concentration. The nonlinear curve ﬁtting and EC50 calculations were per formed using XLﬁt and algorithm “205” (ID Business […]
For cell-based and other in vitro assays, data are presented as data mean ± SD of at least […]
For the orthotopic mouse model, data are presented as mean + SEM. For statistical analysis, one-way ANOVA and multiple comparison (Dunnett) was performed for compound treatments compared to vehicle control. The adjusted p-values with 95% confidence interval were reported as significant. For comparison of EC50 values in Figure 1F, one-way ANOVA with multiple comparison testing (Tukey) was performed. Multiplicity adjusted p -values for the EC50 with sorafenib versus resminostat for each cell line and comparison between cell lines for sorafenib are presented (95% confidence interval for significance testing). For comparison of EC50 data in Figure 2B, one-way ANOVA with multiple comparison testing (Tukey) was performed. Multiplicity adjusted p-values with 95% confidence interval was applied. For the invasion assays in Figure 4, one-way ANOVA with multiple comparison testing (Tukey) was performed. Multiplicity adjusted p-values with 95% confidence interval was applied. The adjusted p-values comparing vehicle control without vs. with platelets and compound

[1] = test system: PLC/PRF/5 and SNU-475 cells; assay: ELISA for growth factors PDGF-AA, TGF and VEGF; conditions: tissue culture supernatants, with or without platelets (Fig. S4B)
Experimental: A. The growth factors PDGF-AA, TGFβ and VEGF were determined from tissue culture supernatants by ELISA. PLC/PRF/5 and SNU-475 cells were cultured with increasing […]
(1 picture or pasted object on this page, not shown here) […]
amounts of platelets. In parallel, platelets were cultured without cells to determine if the growth factors were platelet derived.
B. ELSIAs for PDGF-AA, TGFβ and VEGF were performed after drug treatment of PC/PRF/5 and SNU-475 cells. Cells were cultured as indicated with or without platelets and treated with resminostat, sorafenib, the drug combination or vehicle control 0.1% DMSO.
Table S1_ EC50 cell line screen
S1D. The cancer cell lines, their tissue origins and the respective EC50 values are shown.
Each cell line was seeded in duplicates.

PBMC = assay: Efficacy screening assay; conditions: Non-cancer, healthy donors, 72 h
Experimental: C. Western blots for acetylated α-Tubulin, total α-Tubulin, p21 and GAPDH (loading control).
Cells were treated with vehicle control (0.1 % DMSO), 1 µM or 3 µM resminostat for 24 hours. Grouped blots were composed from cropped parts of individual blots for each antibody. Original blots with exposures and indicated cropped areas can be found in the supplementary information.
D. Cell line screen determining the EC50s of resminostat in 74 cell lines representing 14 different ca ncer indications. In addition, peripheral blood mononuclear cells (PBMCs) from healthy donors were tested. Each dot represents an EC50. […]
labelled fluorogenic peptide substrates: fluorogenic peptide from p53 residues 379-382 (RHKK(Ac)AMC) for HDAC1, 2, 3, 6, 10, 11; fluorogenic HDAC Class IIa Substrate (Trifluoro acetyl Lysine, Ac-LGK(TFA)-AMC) for HDAC 4, 5, 7, 9; and fluorogenic peptide from p53 residues 379-382 (RHK(Ac)K(Ac)AMC) for HDAC8. […] In a second step, the deacetylated products were digested by the addition of developer for 1 h at 30°C to produce the fluorescent signal proportional to the amount of deacetylated substrates and the fluorescence was measured using an Envision plate reader at 355 nm (excitation) and 460 nm (emission). A kinetic measurement was performed for ~1 h with 5 min intervals and d ata from the final time point were analysed. […]

[2] = log of EC50, negative, read-out: log(EC50) (converted)

## CN(C)Cc1ccc(S(=O)(=O)n2ccc(/C=C/C(=O)NO)c2)cc1 [resminostat, Resminostat]
NCIH82; [2]
  EC50: 0.776 µM
NCIH82; read-out: EC50
  EC50: 0.77 µM
[1]
  growth factors released by platelets or secreted by HCC cells: not consistantly affected
PBMC; [2]
  EC50: 8.71 µM
PBMC; read-out: EC50
  EC50: 8.68 µM
